Measurements from paper PMC5605198, “MELK is not necessary for the proliferation of basal-like breast cancer cells” (eLife, 2017).

Legend:
GSK3A = GSK3A (Homo sapiens, UniProt P49840); assay: Z’-LYTE enzymatic assay; conditions: Z’-LYTE assay at [ATP]=apparent Km; read-out: Biochemical IC50 GSK3A
[1] = system: panel of breast cancer cell lines; assay: 3-day proliferation assays, panel summary; type: cell-based
Text: As shRNA-mediated knockdown of MELK was previously reported to inhibit the proliferation of BBC cells, we next tested whether pharmacological inhibition of MELK would have similar effects. We treated a panel of breast cancer cell lines, including MDA-MB-468 and ZR-75-1 cells, with HTH-01-091 and other MELK inhibitors; despite our focus on basal-like breast cancers, we included luminal cell lines for comparison. […] We evaluated the inhibitors in longer-term (7-day) proliferation assays and still observed the same trend, and no clear difference between the breast cancer subtypes (Table 4). We authenticated our MDA-MB-468 line by short tandem repeat analysis, and repeated the proliferation assays using MDA-MB-468 cells from a second source to confirm the modest antiproliferative effects of the selective inhibitors (Table 4).

MKK1 = MKK1 (Homo sapiens, UniProt Q02750); assay: ICKP radiometric kinase assay; type: biochemical; conditions: read-out: % AR (% kinase activity remaining)
ERK5 = ERK5 (Homo sapiens, UniProt Q13164); assay: ICKP radiometric kinase assay; type: biochemical; conditions: read-out: % AR (% kinase activity remaining)
JNK1 = JNK1 (Homo sapiens, UniProt P45983); assay: ICKP radiometric kinase assay; type: biochemical; conditions: read-out: % AR (% kinase activity remaining)
p38 gamma = p38 gamma (Homo sapiens, UniProt P53778); assay: ICKP radiometric kinase assay; type: biochemical; conditions: read-out: % AR (% kinase activity remaining)
PDK1 = PDK1 (Homo sapiens, UniProt O15530); assay: ICKP radiometric kinase assay; type: biochemical; conditions: read-out: % AR (% kinase activity remaining)
PKA = PKA (Homo sapiens, UniProt P17612); assay: ICKP radiometric kinase assay; type: biochemical; conditions: read-out: % AR (% kinase activity remaining)
PRK2 = PRK2 (Homo sapiens, UniProt Q16513); assay: ICKP radiometric kinase assay; type: biochemical; conditions: read-out: % AR (% kinase activity remaining)
MAPKAP-K2 = MAPKAP-K2 (Homo sapiens, UniProt P49137); assay: ICKP radiometric kinase assay; type: biochemical; conditions: read-out: % AR (% kinase activity remaining)
SmMLCK = SmMLCK (Homo sapiens, UniProt Q15746); assay: ICKP radiometric kinase assay; type: biochemical; conditions: for remaining activity at 1 µM: read-out: % AR (% kinase activity remaining)
GSK3 beta = GSK3 beta (Homo sapiens, UniProt P49841); assay: ICKP radiometric kinase assay; type: biochemical; conditions: read-out: % AR (% kinase activity remaining)
Aurora B = Aurora B (Homo sapiens, UniProt Q96GD4); assay: ICKP radiometric kinase assay; type: biochemical; conditions: read-out: % AR (% kinase activity remaining)
LKB1 = LKB1 (Homo sapiens, UniProt Q15831); assay: ICKP radiometric kinase assay; type: biochemical; conditions: read-out: % AR (% kinase activity remaining)
MARK2 = MARK2 (Homo sapiens, UniProt Q7KZI7); assay: ICKP radiometric kinase assay; type: biochemical; conditions: read-out: % AR (% kinase activity remaining)
MARK3 = MARK3 (Homo sapiens, UniProt P27448); assay: ICKP radiometric kinase assay; type: biochemical; conditions: read-out: % AR (% kinase activity remaining)
BRSK2 = BRSK2 (Homo sapiens, UniProt Q8IWQ3); assay: ICKP radiometric kinase assay; type: biochemical; conditions: read-out: % AR (% kinase activity remaining)
TSSK1 = TSSK1 (Homo sapiens, UniProt Q9BXA7); assay: ICKP radiometric kinase assay; type: biochemical; conditions: read-out: % AR (% kinase activity remaining)
CK1 gamma 2 = CK1 gamma 2 (Homo sapiens, UniProt P78368); assay: ICKP radiometric kinase assay; type: biochemical; conditions: read-out: % AR (% kinase activity remaining)
CK1 delta = CK1 delta (Homo sapiens, UniProt P48730); assay: ICKP radiometric kinase assay; type: biochemical; conditions: read-out: % AR (% kinase activity remaining)
PIM2 = PIM2 (Homo sapiens, UniProt Q9P1W9); assay: ICKP radiometric kinase assay; type: biochemical; conditions: read-out: % AR (% kinase activity remaining)
PIM3 = PIM3 (Homo sapiens, UniProt Q86V86); assay: ICKP radiometric kinase assay; type: biochemical; conditions: read-out: % AR (% kinase activity remaining)
EF2K = EF2K (Homo sapiens, UniProt O00418); assay: ICKP radiometric kinase assay; type: biochemical; conditions: read-out: % AR (% kinase activity remaining)
HIPK3 = HIPK3 (Homo sapiens, UniProt Q9H422); assay: ICKP radiometric kinase assay; type: biochemical; conditions: read-out: % AR (% kinase activity remaining)
PAK4 = PAK4 (Homo sapiens, UniProt O96013); assay: ICKP radiometric kinase assay; type: biochemical; conditions: read-out: % AR (% kinase activity remaining)
PAK5 = PAK5 (Homo sapiens, UniProt Q9P286); assay: ICKP radiometric kinase assay; type: biochemical; conditions: read-out: % AR (% kinase activity remaining)
MST3 = MST3 (Homo sapiens, UniProt Q9Y6E0); assay: ICKP radiometric kinase assay; type: biochemical; conditions: read-out: % AR (% kinase activity remaining)
TAO1 = TAO1 (Homo sapiens, UniProt Q7L7X3); assay: ICKP radiometric kinase assay; type: biochemical; conditions: read-out: % AR (% kinase activity remaining)
IRAK1 = IRAK1 (Homo sapiens, UniProt P51617); assay: ICKP radiometric kinase assay; type: biochemical; conditions: read-out: % AR (% kinase activity remaining)
IRAK4 = IRAK4 (Homo sapiens, UniProt Q9NWZ3); assay: ICKP radiometric kinase assay; type: biochemical; conditions: read-out: % AR (% kinase activity remaining)
Src = Src (Homo sapiens, UniProt P12931); assay: ICKP radiometric kinase assay; type: biochemical; conditions: read-out: % AR (% kinase activity remaining)
Lck = Lck (Homo sapiens, UniProt P06239); assay: ICKP radiometric kinase assay; type: biochemical; conditions: read-out: % AR (% kinase activity remaining)
BTK = BTK (Homo sapiens, UniProt Q06187); assay: ICKP radiometric kinase assay; type: biochemical; conditions: read-out: % AR (% kinase activity remaining)
TIE2 = TIE2 (Homo sapiens, UniProt Q02763); assay: ICKP radiometric kinase assay; type: biochemical; conditions: read-out: % AR (% kinase activity remaining)
EPH-A4 = EPH-A4 (Homo sapiens, UniProt P54764); assay: ICKP radiometric kinase assay; type: biochemical; conditions: read-out: % AR (% kinase activity remaining)
EPH-B3 = EPH-B3 (Homo sapiens, UniProt P54753); assay: ICKP radiometric kinase assay; type: biochemical; conditions: read-out: % AR (% kinase activity remaining)
IRR = IRR (Homo sapiens, UniProt P14616); assay: ICKP radiometric kinase assay; type: biochemical; conditions: read-out: % AR (% kinase activity remaining)
VEGFR1 = VEGFR1 (Homo sapiens, UniProt P17948); assay: ICKP radiometric kinase assay; type: biochemical; conditions: read-out: % AR (% kinase activity remaining)
PDGFRA = PDGFRA (Homo sapiens, UniProt P16234); assay: ICKP radiometric kinase assay; type: biochemical; conditions: read-out: % AR (% kinase activity remaining)

Chain of EPH-A4 (P54764 20-986): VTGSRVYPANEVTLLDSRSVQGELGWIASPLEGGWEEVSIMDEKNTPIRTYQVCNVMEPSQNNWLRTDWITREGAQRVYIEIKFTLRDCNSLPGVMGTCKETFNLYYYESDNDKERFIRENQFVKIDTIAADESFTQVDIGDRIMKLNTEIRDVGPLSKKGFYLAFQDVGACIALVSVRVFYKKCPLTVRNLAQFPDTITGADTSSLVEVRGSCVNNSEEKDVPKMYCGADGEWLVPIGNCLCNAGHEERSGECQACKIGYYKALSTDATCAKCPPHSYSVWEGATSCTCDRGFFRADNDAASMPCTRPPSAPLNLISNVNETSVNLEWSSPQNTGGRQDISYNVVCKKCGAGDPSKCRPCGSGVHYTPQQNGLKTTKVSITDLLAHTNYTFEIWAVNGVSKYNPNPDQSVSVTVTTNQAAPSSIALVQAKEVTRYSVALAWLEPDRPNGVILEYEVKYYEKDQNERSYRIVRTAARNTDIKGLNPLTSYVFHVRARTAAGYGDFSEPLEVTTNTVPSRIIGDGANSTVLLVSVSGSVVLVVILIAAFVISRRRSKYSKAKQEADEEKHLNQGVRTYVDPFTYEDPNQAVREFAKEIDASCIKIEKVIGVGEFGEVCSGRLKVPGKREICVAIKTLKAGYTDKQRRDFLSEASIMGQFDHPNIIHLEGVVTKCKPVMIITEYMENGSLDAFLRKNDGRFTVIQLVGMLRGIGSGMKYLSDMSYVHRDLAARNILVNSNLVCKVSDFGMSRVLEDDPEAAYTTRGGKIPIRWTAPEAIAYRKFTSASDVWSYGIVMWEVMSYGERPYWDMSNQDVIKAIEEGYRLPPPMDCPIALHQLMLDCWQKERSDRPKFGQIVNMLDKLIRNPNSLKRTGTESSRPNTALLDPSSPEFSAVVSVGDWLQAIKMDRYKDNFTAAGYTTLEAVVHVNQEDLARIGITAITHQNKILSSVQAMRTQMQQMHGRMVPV
Chain of JNK1 (P45983 whole entry): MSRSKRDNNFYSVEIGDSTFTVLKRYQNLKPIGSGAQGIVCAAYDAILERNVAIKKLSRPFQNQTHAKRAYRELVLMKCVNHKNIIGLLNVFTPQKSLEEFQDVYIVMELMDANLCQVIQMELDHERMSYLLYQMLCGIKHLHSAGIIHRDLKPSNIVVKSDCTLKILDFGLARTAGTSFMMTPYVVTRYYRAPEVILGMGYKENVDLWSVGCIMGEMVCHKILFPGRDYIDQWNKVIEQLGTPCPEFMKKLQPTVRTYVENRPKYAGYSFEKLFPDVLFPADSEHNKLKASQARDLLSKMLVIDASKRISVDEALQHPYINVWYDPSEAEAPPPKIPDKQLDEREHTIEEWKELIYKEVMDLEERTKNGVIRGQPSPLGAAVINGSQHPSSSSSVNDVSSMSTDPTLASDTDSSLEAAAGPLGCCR
Chain of MARK2 (Q7KZI7 whole entry): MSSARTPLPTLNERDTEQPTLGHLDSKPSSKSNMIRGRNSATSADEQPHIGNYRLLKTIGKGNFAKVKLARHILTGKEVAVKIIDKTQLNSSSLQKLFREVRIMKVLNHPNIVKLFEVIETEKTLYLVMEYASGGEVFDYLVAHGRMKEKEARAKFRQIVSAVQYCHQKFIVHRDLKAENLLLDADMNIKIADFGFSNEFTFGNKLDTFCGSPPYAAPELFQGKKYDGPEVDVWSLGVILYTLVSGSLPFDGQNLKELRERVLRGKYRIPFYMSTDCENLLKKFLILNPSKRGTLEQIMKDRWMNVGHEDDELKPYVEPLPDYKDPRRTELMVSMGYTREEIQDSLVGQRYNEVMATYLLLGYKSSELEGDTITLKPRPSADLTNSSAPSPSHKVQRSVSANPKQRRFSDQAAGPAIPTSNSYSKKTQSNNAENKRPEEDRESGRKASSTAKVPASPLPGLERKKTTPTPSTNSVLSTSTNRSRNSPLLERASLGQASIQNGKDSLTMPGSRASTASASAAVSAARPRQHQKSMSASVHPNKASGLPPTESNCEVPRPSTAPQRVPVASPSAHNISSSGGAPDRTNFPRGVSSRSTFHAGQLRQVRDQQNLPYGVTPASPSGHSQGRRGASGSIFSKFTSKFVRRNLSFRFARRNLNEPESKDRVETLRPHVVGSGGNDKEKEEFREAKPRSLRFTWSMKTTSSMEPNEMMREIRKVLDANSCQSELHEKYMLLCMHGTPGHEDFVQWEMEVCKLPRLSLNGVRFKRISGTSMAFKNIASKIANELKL
Chain of PRK2 (Q16513 whole entry): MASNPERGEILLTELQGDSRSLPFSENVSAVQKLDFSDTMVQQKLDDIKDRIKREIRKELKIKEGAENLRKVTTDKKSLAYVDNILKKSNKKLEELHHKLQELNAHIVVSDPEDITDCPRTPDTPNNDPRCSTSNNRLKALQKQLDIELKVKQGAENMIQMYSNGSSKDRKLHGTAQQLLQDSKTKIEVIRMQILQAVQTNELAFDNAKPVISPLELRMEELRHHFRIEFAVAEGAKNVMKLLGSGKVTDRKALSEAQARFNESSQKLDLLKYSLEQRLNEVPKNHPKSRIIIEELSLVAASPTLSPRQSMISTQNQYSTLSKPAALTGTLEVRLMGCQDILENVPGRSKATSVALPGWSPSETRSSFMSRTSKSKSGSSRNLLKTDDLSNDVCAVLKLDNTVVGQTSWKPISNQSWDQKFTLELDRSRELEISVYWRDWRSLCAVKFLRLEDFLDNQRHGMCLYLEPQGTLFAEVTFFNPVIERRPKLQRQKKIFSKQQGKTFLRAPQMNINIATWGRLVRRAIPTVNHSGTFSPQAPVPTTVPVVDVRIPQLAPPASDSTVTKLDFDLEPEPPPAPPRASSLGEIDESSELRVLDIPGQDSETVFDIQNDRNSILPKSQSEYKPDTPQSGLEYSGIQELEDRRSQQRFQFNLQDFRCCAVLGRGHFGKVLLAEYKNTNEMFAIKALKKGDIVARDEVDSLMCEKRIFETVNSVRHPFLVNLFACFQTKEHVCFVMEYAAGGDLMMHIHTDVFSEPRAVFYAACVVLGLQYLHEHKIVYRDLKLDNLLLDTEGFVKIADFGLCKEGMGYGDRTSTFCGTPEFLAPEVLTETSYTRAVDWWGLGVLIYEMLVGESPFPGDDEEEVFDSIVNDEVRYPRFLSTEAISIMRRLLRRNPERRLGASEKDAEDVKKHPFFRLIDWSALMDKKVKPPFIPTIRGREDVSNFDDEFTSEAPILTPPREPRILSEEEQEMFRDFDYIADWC
Chain of BTK (Q06187 whole entry): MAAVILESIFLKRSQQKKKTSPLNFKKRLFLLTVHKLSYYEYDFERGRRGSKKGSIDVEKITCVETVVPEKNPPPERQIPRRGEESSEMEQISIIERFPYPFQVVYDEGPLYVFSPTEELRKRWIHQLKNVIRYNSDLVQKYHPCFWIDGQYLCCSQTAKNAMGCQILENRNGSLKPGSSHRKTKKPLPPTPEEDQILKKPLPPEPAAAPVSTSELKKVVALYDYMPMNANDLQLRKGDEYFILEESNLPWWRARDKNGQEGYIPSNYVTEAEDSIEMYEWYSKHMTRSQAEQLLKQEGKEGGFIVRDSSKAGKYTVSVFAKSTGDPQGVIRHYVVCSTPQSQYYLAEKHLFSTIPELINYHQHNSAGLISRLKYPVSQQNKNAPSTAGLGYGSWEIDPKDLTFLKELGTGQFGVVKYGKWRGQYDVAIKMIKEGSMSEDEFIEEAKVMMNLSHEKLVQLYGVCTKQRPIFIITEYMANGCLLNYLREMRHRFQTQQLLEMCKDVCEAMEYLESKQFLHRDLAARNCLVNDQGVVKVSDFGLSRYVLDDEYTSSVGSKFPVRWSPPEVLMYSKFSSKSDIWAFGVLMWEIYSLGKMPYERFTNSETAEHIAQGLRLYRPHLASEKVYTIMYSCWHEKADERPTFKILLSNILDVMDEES
Chain of LKB1 (Q15831 whole entry): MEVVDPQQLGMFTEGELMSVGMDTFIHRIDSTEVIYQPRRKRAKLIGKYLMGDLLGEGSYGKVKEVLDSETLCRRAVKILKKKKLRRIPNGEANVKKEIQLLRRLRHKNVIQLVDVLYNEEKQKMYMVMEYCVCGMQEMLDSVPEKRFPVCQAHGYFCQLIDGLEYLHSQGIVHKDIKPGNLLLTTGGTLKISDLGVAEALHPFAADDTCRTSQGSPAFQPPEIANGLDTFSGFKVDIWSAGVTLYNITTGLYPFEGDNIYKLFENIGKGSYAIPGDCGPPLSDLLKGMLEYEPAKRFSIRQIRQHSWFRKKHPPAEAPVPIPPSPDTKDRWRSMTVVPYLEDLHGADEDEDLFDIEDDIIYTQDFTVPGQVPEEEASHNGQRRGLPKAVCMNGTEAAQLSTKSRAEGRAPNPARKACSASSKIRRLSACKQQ
Chain of LKB1 (Q7RTN6 whole entry partner): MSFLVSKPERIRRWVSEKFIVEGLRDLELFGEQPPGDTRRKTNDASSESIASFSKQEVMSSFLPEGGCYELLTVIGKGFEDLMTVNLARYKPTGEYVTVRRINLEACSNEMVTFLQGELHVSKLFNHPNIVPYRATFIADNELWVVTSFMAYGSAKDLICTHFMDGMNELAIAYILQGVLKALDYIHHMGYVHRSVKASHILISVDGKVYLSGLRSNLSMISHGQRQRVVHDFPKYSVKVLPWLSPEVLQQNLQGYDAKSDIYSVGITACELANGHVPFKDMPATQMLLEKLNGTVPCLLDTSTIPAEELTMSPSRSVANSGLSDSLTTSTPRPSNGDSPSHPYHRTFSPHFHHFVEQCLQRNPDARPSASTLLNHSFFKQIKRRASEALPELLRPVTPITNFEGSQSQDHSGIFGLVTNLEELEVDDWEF
Chain of LKB1 (Q9Y376 whole entry partner): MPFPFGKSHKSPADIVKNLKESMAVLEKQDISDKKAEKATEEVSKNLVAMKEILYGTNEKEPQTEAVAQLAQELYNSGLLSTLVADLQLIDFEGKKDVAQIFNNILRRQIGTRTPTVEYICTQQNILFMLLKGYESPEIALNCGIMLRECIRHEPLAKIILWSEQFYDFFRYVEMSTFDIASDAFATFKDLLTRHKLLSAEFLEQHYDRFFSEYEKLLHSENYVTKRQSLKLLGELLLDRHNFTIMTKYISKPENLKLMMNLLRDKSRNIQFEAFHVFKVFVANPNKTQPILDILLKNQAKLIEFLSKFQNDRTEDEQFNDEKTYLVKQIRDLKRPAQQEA

SMILES | IC50 (GSK3A) | remaining activity at 1 µM (MKK1) | remaining activity at 1 µM (ERK5) | remaining activity at 1 µM (JNK1) | remaining activity at 1 µM (p38 gamma) | remaining activity at 1 µM (PDK1) | remaining activity at 1 µM (PKA) | remaining activity at 1 µM (PRK2) | remaining activity at 1 µM (MAPKAP-K2) | remaining activity at 1 µM (SmMLCK) | remaining activity at 1 µM (GSK3 beta) | remaining activity at 1 µM (Aurora B) | remaining activity at 1 µM (LKB1) | remaining activity at 1 µM (MARK2) | remaining activity at 1 µM (MARK3) | remaining activity at 1 µM (BRSK2) | remaining activity at 1 µM (TSSK1) | remaining activity at 1 µM (CK1 gamma 2) | remaining activity at 1 µM (CK1 delta) | remaining activity at 1 µM (PIM2) | other results
CN(C)C[C@H]1CC[C@H](N2C(=O)NCc3cnc4ccc(-c5cc(Cl)c(O)c(Cl)c5)cc4c32)CC1 [HTH-01-091, 9-(3,5-dichloro-4-hydroxyphenyl)-1-(trans-4-((dimethylamino)methyl)cyclohexyl)-3,4-dihydropyrimido[5,4 c]quinolin-2(1H)-one] | 1740 nM | 62% | 70% | 97% | 86% | 102% | 112% | 77% | 98% | 8% | 86% | 35% | 100% | 94% | 94% | 125% | 68% | 80% | 36% | 2% | antiproliferative IC50 values, fold less potent than OTSSP167 [1]: at least 300 fold; IC50 (SmMLCK; radioactive filter-binding assay provided by the ICKP, read-out: Enzymatic IC50 SmMLCK): 109 nM; remaining activity at 1 µM (PIM3): 1%; remaining activity at 1 µM (EF2K): 85%; remaining activity at 1 µM (HIPK3): 25%; remaining activity at 1 µM (PAK4): 79%; remaining activity at 1 µM (PAK5): 73%; remaining activity at 1 µM (MST3): 93%; remaining activity at 1 µM (TAO1): 18%; remaining activity at 1 µM (IRAK1): 86%; remaining activity at 1 µM (IRAK4): 85%; remaining activity at 1 µM (Src): 54%; remaining activity at 1 µM (Lck): 35%; remaining activity at 1 µM (BTK): 45%; remaining activity at 1 µM (TIE2): 71%; remaining activity at 1 µM (EPH-A4): 63%; remaining activity at 1 µM (EPH-B3): 99%; remaining activity at 1 µM (IRR): 79%; remaining activity at 1 µM (VEGFR1): 43%; remaining activity at 1 µM (PDGFRA): 35%
CC(=O)c1cnc2ccc(-c3cc(Cl)c(O)c(Cl)c3)nc2c1N[C@H]1CC[C@H](CN(C)C)CC1 [OTSSP167] | 1.6 nM | 3% | 4% | 10% | 12% | 4% | 12% | 2% | 14% | 6% | 0% | 14% | 83% | 23% | 13% | 2% | 1% | 10% | 6% | 0% | IC50 ([1]; 72 h, most cell lines tested, read-out: half maximal killing): < 100 nM; remaining activity at 1 µM (PIM3): 1%; remaining activity at 1 µM (EF2K): 114%; remaining activity at 1 µM (HIPK3): 0%; remaining activity at 1 µM (PAK4): 9%; remaining activity at 1 µM (PAK5): 19%; remaining activity at 1 µM (MST3): 5%; remaining activity at 1 µM (TAO1): 3%; remaining activity at 1 µM (IRAK1): 3%; remaining activity at 1 µM (IRAK4): 7%; remaining activity at 1 µM (Src): 5%; remaining activity at 1 µM (Lck): 0%; remaining activity at 1 µM (BTK): 7%; remaining activity at 1 µM (TIE2): 3%; remaining activity at 1 µM (EPH-A4): 1%; remaining activity at 1 µM (EPH-B3): 18%; remaining activity at 1 µM (IRR): 6%; remaining activity at 1 µM (VEGFR1): 1%; remaining activity at 1 µM (PDGFRA): 20%
